Species on record: Rattus norvegicus
Assay: Open TG-GATES - Regimen: Daily Repeat
Type: toxicity, organism-based, Sprague-Dawley
Set-up: regimen Daily Repeat, gender Male, age 6 weeks
Conditions: in vivo, po, 100 mg/kg, […], route gavage, dose level High; for KIDNEY_L / KIDNEY_R / KIDNEY_TOTAL: tissue Kidney; for LIVER: tissue Liver; for A/G / ALP / ALT / AST / BUN / CRE / Ca / Cl / DBIL / GLC / IP / K / LDH / Na / PL / RALB / TBIL / TC / TG / TP / gamma-GTP: tissue Plasma

**Q.** Which results are given for `Nc1ccc(Cc2ccc(N)cc2)cc1`?
**A.** Lym (tissue Blood, time 28 day): 67.2%; MCH (tissue Blood, time 28 day): 18.4 pg; MCHC (tissue Blood, time 28 day): 36.1%; MCV (tissue Blood, time 28 day): 51.2 fL; Mono (tissue Blood, time 28 day): 4%; Neu (tissue Blood, time 28 day): 26.6%; PT (tissue Blood, time 28 day): 15.2 s; Plat (tissue Blood, time 28 day): 121.3 x10_4/uL; RBC (tissue Blood, time 28 day): 654 x10_4/ul; Ret (tissue Blood, time 28 day): 5.8%; WBC (tissue Blood, time 28 day): 304.5 x10_2/uL; KIDNEY_L (time 7 day): 1 g; KIDNEY_R (time 7 day): 1 g; KIDNEY_TOTAL (time 7 day): 2 g; KIDNEY_L (time 14 day): 1 g; KIDNEY_R (time 14 day): 1.1 g; KIDNEY_TOTAL (time 14 day): 2.1 g; KIDNEY_L (time 28 day): 1.1 g; KIDNEY_R (time 28 day): 1 g; KIDNEY_TOTAL (time 28 day): 2.1 g; LIVER (time 7 day): 13.1 g; LIVER (time 14 day): 16.2 g; LIVER (time 28 day): 14.1 g; A/G (time 7 day): 0.6; ALP (time 7 day): 3310.8 IU/L; ALT (time 7 day): 96.2 IU/L; AST (time 7 day): 198.8 IU/L; BUN (time 7 day): 13 mg/dL; CRE (time 7 day): 0.2 mg/dL; Ca (time 7 day): 11.6 mg/dL; Cl (time 7 day): 103.8 meq/L; DBIL (time 7 day): 0.9 mg/dL; GLC (time 7 day): 148.4 mg/dL; IP (time 7 day): 6.9 mg/dL; K (time 7 day): 4.4 meq/L; LDH (time 7 day): 95 IU/L; Na (time 7 day): 143.6 meq/L; PL (time 7 day): 213.6 mg/dL; RALB (time 7 day): 2.4 g/dL; TBIL (time 7 day): 1.7 mg/dL; TC (time 7 day): 135 mg/dL; TG (time 7 day): 48.6 mg/dL; TP (time 7 day): 6.1 g/dL; gamma-GTP (time 7 day): 6 IU/L; A/G (time 14 day): 0.5; ALP (time 14 day): 2423.6 IU/L; ALT (time 14 day): 91.4 IU/L; AST (time 14 day): 260 IU/L; BUN (time 14 day): 17.6 mg/dL; CRE (time 14 day): 0.2 mg/dL; Ca (time 14 day): 11.4 mg/dL; Cl (time 14 day): 103.6 meq/L; DBIL (time 14 day): 0.7 mg/dL; GLC (time 14 day): 143.6 mg/dL; IP (time 14 day): 6.4 mg/dL; K (time 14 day): 4.1 meq/L; LDH (time 14 day): 143.8 IU/L; Na (time 14 day): 143.6 meq/L; PL (time 14 day): 226.4 mg/dL; RALB (time 14 day): 2.5 g/dL; TBIL (time 14 day): 1.6 mg/dL; TC (time 14 day): 165.4 mg/dL; TG (time 14 day): 49.6 mg/dL; TP (time 14 day): 7 g/dL; gamma-GTP (time 14 day): 8 IU/L; A/G (time 28 day): 0.5; ALP (time 28 day): 3009.6 IU/L; ALT (time 28 day): 116.6 IU/L; AST (time 28 day): 300 IU/L; BUN (time 28 day): 19.2 mg/dL; CRE (time 28 day): 0.3 mg/dL; Ca (time 28 day): 11.5 mg/dL; Cl (time 28 day): 102 meq/L; DBIL (time 28 day): 0.6 mg/dL; GLC (time 28 day): 144 mg/dL; IP (time 28 day): 5.6 mg/dL; K (time 28 day): 4 meq/L; LDH (time 28 day): 108.6 IU/L; Na (time 28 day): 146.2 meq/L; PL (time 28 day): 158.4 mg/dL; RALB (time 28 day): 2.5 g/dL; TBIL (time 28 day): 1.7 mg/dL; TC (time 28 day): 113.4 mg/dL; TG (time 28 day): 33.2 mg/dL; TP (time 28 day): 7.6 g/dL; gamma-GTP (time 28 day): 7.2 IU/L
